Laboratory results reported in ChEMBL document CHEMBL1144354, “Frontal affinity chromatography with MS detection of EphB2 tyrosine kinase receptor. 2. Identification of small-molecule inhibitors via coupling with virtual screening” (J Med Chem, 2005).

Legend:
Ephrin type-B receptor 2 [1] = target: T1, Ephrin type-B receptor 2 (Homo sapiens, UniProt P29323); assay: Equilibrium binding constant for EPH receptor B2
T1 sequence (P29323 whole entry): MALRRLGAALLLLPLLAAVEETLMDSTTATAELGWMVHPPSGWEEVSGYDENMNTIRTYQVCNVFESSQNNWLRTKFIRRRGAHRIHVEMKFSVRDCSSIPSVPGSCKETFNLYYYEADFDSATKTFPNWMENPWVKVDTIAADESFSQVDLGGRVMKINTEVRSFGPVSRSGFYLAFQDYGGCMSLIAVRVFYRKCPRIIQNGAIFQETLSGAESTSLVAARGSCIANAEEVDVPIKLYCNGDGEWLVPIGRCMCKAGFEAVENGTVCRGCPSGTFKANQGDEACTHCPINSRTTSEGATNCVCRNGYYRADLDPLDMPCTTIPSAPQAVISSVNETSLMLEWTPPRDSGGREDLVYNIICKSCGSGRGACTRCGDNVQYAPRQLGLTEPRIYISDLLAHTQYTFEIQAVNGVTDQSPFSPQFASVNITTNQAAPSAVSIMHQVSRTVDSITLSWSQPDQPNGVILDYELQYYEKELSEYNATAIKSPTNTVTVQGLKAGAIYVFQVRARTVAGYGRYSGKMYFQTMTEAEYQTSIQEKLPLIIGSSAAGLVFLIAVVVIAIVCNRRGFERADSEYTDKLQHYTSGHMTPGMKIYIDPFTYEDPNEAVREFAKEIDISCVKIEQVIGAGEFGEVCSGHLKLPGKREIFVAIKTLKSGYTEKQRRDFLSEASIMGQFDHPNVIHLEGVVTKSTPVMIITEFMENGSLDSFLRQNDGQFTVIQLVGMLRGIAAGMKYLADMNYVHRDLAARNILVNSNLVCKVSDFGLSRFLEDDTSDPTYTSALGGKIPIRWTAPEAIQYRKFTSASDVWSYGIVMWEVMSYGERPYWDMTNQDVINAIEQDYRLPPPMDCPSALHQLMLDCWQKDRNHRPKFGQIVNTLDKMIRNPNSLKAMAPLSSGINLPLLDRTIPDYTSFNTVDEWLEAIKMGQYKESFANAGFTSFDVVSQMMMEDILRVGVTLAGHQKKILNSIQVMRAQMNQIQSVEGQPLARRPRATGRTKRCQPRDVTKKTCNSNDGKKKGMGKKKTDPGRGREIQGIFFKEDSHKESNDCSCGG

Ephrin type-B receptor 2 [2] = target: T1, Ephrin type-B receptor 2; assay: Inhibition of EPH receptor B2 using ELISA

SMILES: COc1cc2ncnc(Nc3cccc(O)c3)c2cc1OC
- Kd (Ephrin type-B receptor 2 [1]): 2.4 µM
- IC50 (Ephrin type-B receptor 2 [2]): 1.2 µM

SMILES: O=C1C=C(Nc2ccc(O)cc2)C(=O)c2ccccc21
- IC50 (Ephrin type-B receptor 2 [2]): 38 µM

SMILES: COc1cc2ncnc(Nc3cccc(Br)c3)c2cc1OC
- Kd (Ephrin type-B receptor 2 [1]): 8.1 µM
- IC50 (Ephrin type-B receptor 2 [2]): 10.2 µM

SMILES: CN(C)c1ccc(/C=C2/C(=O)Nc3ccccc32)cc1
- Kd (Ephrin type-B receptor 2 [1]): 19.5 µM
- IC50 (Ephrin type-B receptor 2 [2]): 27.5 µM

SMILES: CC(C)(C)n1nc(-c2ccc(Cl)cc2)c2c(N)ncnc21
- Kd (Ephrin type-B receptor 2 [1]): 36.5 µM
- IC50 (Ephrin type-B receptor 2 [2]): 52 µM

SMILES: CNc1ccc2c(Nc3cccc(Br)c3)ncnc2c1
- Kd (Ephrin type-B receptor 2 [1]): 21.9 µM
- IC50 (Ephrin type-B receptor 2 [2]): 34 µM

SMILES: COc1cc2ncnc(Nc3ccc(Oc4ccccc4)cc3)c2cc1OC
- Kd (Ephrin type-B receptor 2 [1]): 58.4 µM
- IC50 (Ephrin type-B receptor 2 [2]): 86 µM
